Data set [1] deals with human breast cancer cells MCF-7 and MDA-MB-231. More on the design: method as in PMID 36077839. As to conditions: 3 µM; cited from earlier work.
Data set [2] relates to MCF-7 breast cancer cells. Kind of data set: MTT cytotoxicity test, MCF-7. The following applies: Homo sapiens, MCF7; MCF-7, 24 h incubation; read-out: IC50, cell viability (MTT). Type of data set: cell-based, human. The method, then:
(§1) MCF-7 and MDA-MB-231 human breast cancer cell lines, as well as MCF-10A normal human breast epithelial cells, were acquired from the American Type Culture Collection (ATCC, Manassas, VA, USA). The characteristics of the breast cancer cell lines used in this study are compared in Table 1. MCF-7 and MDA-MB-231 cells were cultured in Dulbecco’s modified Eagle’s medium (Gibco, San Diego, CA, USA), while MCF-10A cells were cultured in the mammary epithelial cell growth medium with the following supplements: BPE, hEGF, insulin, hydrocortisone, GA-1000 (Lonza, Basel, Switzerland). All media were complemented by 10% of fetal bovine serum (FBS) and 1% of the following antibiotics: penicillin and streptomycin (both Gibco, San Diego, CA, USA). The cells were maintained in an incubator that provides the optimal growth conditions for the cell culture: 5% CO2, 37 °C, and humidity in a range of 90–95%. The cells were cultured in 100 mm plates (Sarstedt, Newton, NC, USA). Subsequently, after obtaining a subconfluent cell culture, the cells were detached with 0.05% trypsin with 0.02% EDTA (Gibco, San Diego, CA, USA). […] In this study, cells that obtained 80% confluence were used. The MTT assay was used to determine the cytotoxic effects of the compounds in the study on MCF-7 and MDA-MB-231 breast cancer cells as well as MCF-10A normal human breast epithelial cells based on Carmichael’s method. […] After this time, the medium was removed, and the cell monolayer was washed with warm phosphate-buffered saline (PBS) without calcium and magnesium. In the next step, PBS and MTT solution in PBS (5 mg/mL) were added to each well to obtain a final MTT concentration of 0.5 mg/mL, and then the cells were incubated for 4 h (37 °C temperature, 5% CO2, 90–95% humidity). After the incubation period, the contents of each well were removed, 1 mL of DMSO was added to dissolve the formazan, and then the plate with the added DMSO was mixed for 5–10 min on a microplate shaker (Boeco, Hamburg, Germany). Then, 10 µL of Sorensen’s glycine buffer (a solution of 0.1 M glycine and 0.1 M sodium chloride adjusted to pH 10.5 with 0.1 M sodium hydroxide) was added. The absorbance of the obtained solution was immediately measured at a wavelength of λ = 570 nm using a Thermo Scientific Evolution 201 UV–VIS spectrophotometer (Thermo Fisher Scientific, Waltham, MA, USA). The absorbance result obtained in the control cells (without the addition of the tested compounds) was taken as 100%, while the viability of cells incubated with the tested compounds was presented as a percentage of the control value.
In general terms: Tetrazolium assays rely on reduction of a dye to a coloured formazan, in cell work by metabolically active cells.

The subject of data set [3] is MDA-MB-231 triple-negative breast cancer cells. Kind of data set: MTT cytotoxicity test, MDA-MB-231. Type of data set: cell-based, human. How it is done: as §1
The subject of data set [4] is MCF-10A normal human breast epithelial cells. Kind of data set: MTT cytotoxicity test, MCF-10A. As to conditions: Homo sapiens, 24 h incubation, read-out: IC50, cell viability (MTT). Type of data set: cell-based. The method, then:
as §1

The test system of data set [5] is MCF-7 breast cancer cells. Kind of data set: DNA biosynthesis assay ([3H]-thymidine incorporation), MCF-7. Format: cell-based, human. As to conditions: Homo sapiens, MCF7, 24 h, read-out: IC50, DNA biosynthesis. The method, then: (§2) The study of the antiproliferative properties (intensity of [^3H]-thymidine incorporation into cell DNA) of the tested derivatives against tested cell lines (MCF-7, MDA-MB-231, MCF-10A) was performed after 24 h incubation with varied concentrations of the tested compounds in the medium (0.5–5 µM) in 6-well plates (baseline seeding density: 5 × 10^5 cells/well). After 24 h the medium was removed, the cells were washed with PBS (Corning, Kennebunk, ME, USA), and a fresh medium was added. After that, the cells were treated with 0.5 µCi of tritium-labeled thymidine (specific activity 7 Ci/mmol) by incubating them with this compound for 4 h under the same conditions as the cell culture. In the first step, the medium was removed, and the cell monolayer was washed twice with 1 mL of 0.05 M Tris-HCl buffer pH 7.4 containing 0.11 M NaCl. To denature proteins, the cells were washed twice with 1 mL of 5% trichloroacetic acid (TCA) solution. Finally, cell lysis was performed by adding 1 mL of 0.1 M sodium hydroxide (NaOH) solution containing 1% sodium dodecyl sulfate (SDS) to each well. After five minutes, the obtained cell lysates were transferred to scintillation vials with 2 mL of scintillation fluid added to them beforehand. Radioactivity was measured using the Scintillation Counter 1900 TR, TRI-CARB (Packard, Perkin Elmer, Inc., San Jose, CA, USA). The intensity of DNA biosynthesis in the analyzed cells was expressed in terms of dpm/well. The result of the radioactivity measurement in the control cells (without the addition of tested compounds) was taken as 100%, while the values of cells incubated with the tested compounds were presented as a percentage of the control value.
(Incorporation of labelled thymidine or its analogues reports DNA synthesis.)

Data set [6] concerns MDA-MB-231 triple-negative breast cancer cells. Kind of data set: DNA biosynthesis assay ([3H]-thymidine incorporation), MDA-MB-231. Format: cell-based, human. The following applies: Homo sapiens, MDA-MB-231, 24 h, read-out: IC50, DNA biosynthesis. The method, then: as §2
The subject of data set [7] is MCF-10A normal human breast epithelial cells. Kind of data set: DNA biosynthesis assay ([3H]-thymidine incorporation), MCF-10A. Type of data set: cell-based. As to conditions: Homo sapiens, 24 h, read-out: IC50, DNA biosynthesis. The method, then: as §2
The test system of data set [8] is MCF-7, MDA-MB-231 and MCF-10A cells. Kind of data set: Viability (MTT) and DNA biosynthesis, summary statements over the tested cell lines. Type of data set: cell-based, human. As to conditions: DNA biosynthesis, vs EDAG-1 and EDAG-8. How it is done: The MTT assay was used to determine the cytotoxic effects of the compounds in the study on MCF-7 and MDA-MB-231 breast cancer cells as well as MCF-10A normal human breast epithelial cells based on Carmichael’s method. All cultured cell lines were treated with varied concentrations of the tested compounds in the medium (0.5–5 µM) and incubated for 24 h in an incubator providing optimal conditions for cell culture growth (37 °C temperature, 5% CO2, and 90–95% humidity) in 6-well plates (baseline seeding density: 5 × 10^5 cells/well). After this time, the medium was removed, and the cell monolayer was washed with warm phosphate-buffered saline (PBS) without calcium and magnesium. In the next step, PBS and MTT solution in PBS (5 mg/mL) were added to each well to obtain a final MTT concentration of 0.5 mg/mL, and then the cells were incubated for 4 h (37 °C temperature, 5% CO2, 90–95% humidity). After the incubation period, the contents of each well were removed, 1 mL of DMSO was added to dissolve the formazan, and then the plate with the added DMSO was mixed for 5–10 min on a microplate shaker (Boeco, Hamburg, Germany). Then, 10 µL of Sorensen’s glycine buffer (a solution of 0.1 M glycine and 0.1 M sodium chloride adjusted to pH 10.5 with 0.1 M sodium hydroxide) was added. The absorbance of the obtained solution was immediately measured at a wavelength of λ = 570 nm using a Thermo Scientific Evolution 201 UV–VIS spectrophotometer (Thermo Fisher Scientific, Waltham, MA, USA). The absorbance result obtained in the control cells (without the addition of the tested compounds) was taken as 100%, while the viability of cells incubated with the tested compounds was presented as a percentage of the control value.
The study of the antiproliferative properties (intensity of [^3H]-thymidine incorporation into cell DNA) of the tested derivatives against tested cell lines (MCF-7, MDA-MB-231, MCF-10A) was performed after 24 h incubation with varied concentrations of the tested compounds in the medium (0.5–5 µM) in 6-well plates (baseline seeding density: 5 × 10^5 cells/well). After 24 h the medium was removed, the cells were washed with PBS (Corning, Kennebunk, ME, USA), and a fresh medium was added. […] Radioactivity was measured using the Scintillation Counter 1900 TR, TRI-CARB (Packard, Perkin Elmer, Inc., San Jose, CA, USA). The intensity of DNA biosynthesis in the analyzed cells was expressed in terms of dpm/well. The result of the radioactivity measurement in the control cells (without the addition of tested compounds) was taken as 100%, while the values of cells incubated with the tested compounds were presented as a percentage of the control value.

For `CC(=O)C[Se]C(=O)c1ccc(Cl)cc1` [EDA-71], the “cells in which the apoptotic process was triggered” value in data set [1] is reported as “over 50%”.
What is called IC50 is the midpoint of a concentration-inhibition curve. Turning to `N#CC[Se]C(=O)c1ccc(C(=O)[Se]CC#N)cc1` [EDAG-7, Se,Se-bis(cyanomethyl) benzene-1,4-bis(carboselenoate)], the IC50 in data set [2] was 3.15 ± 0.21 µM; in data set [3] (Homo sapiens, MDA-MB-231, 24 h incubation, read-out: IC50, cell viability (MTT)), greater than 5 µM; in data set [4] it was 4.64 ± 0.24 µM; in data set [5], 1.81 ± 0.11 µM; in data set [6], 2.04 ± 0.16 µM; in data set [7] it was 2.33 ± 0.02 µM. Also, the “fold weaker antiproliferative activity than the most active derivatives” value in data set [8] was 2–3 fold.
For `N#CC[Se]C(=O)c1cc(C(=O)[Se]CC#N)cc(C(=O)[Se]CC#N)c1` [EDAG-10, Se,Se,Se-tris-(cyanomethyl) benzene-1,3,5-tris-(carboxyselenoate)], the IC50 in data set [2] is 2.6 ± 0.03 µM; in data set [4], 4.18 ± 0.29 µM; in data set [5], 1.95 ± 0.11 µM; in data set [6], 1.56 ± 0.08 µM; in data set [7] it was 1.6 ± 0.05 µM. In addition, in data set [3] (MDA-MB-231, MTT, vs EDAG-8/EDAG-1), the “fold weaker cytotoxic activity than the most active compounds” value is reported as roughly 4 fold. The “fold weaker antiproliferative activity than the most active derivatives” value in data set [8] is listed as 2–3 fold.

The values are drawn from article PMC11277004, “Di- and Triselenoesters—Promising Drug Candidates for the Future Therapy of Triple-Negative Breast Cancer” (International Journal of Molecular Sciences, 2024).
